Data on three compounds can be found in US20110217715A1, “GENE EXPRESSION IN DUCHENNE MUSCULAR DYSTROPHY” (CHILDREN'S HOSPITAL MEDICAL CENTER, priority 2008, published 2011).

In experiment [1] the test system is individuals with DMD. As to conditions: individuals with DMD; cited from earlier work.
In experiment [2] the test system is mdx mouse. As to conditions: cited from earlier work.
In experiment [3] the test system is mRNA expression in peripheral blood of individuals with DMD. Description: Whole-blood gene expression microarray: DMD administered deflazacort vs DMD administered prednisone. Type of experiment: in vivo, human. The following applies: blood. The protocol: Fifteen ml of blood was collected from each individual into 6 PAXgene® Vacutainer® tubes (PreAnalytiX, Germany) by antecubital fossa venipuncture. PAXgene® tubes contain a proprietary reagent that immediately stabilizes RNA, thus reducing RNA degradation and minimizing gene expression changes following phlebotomy. The tubes were then inverted 20 times, then remained undisturbed for 2 h at room temperature (about 19° C. to about 22° C.), and then stored at -70° C. until processed. Total RNA was isolated using the Paxgene® blood RNA kit (PreAnalytiX, Germany) according to the manufacturers instructions. The RNA isolated is from all cells in whole blood. Typical yields of total RNA isolated from about 7.5 ml of human whole blood were between 10 μg RNA and 40 μg RNA. RNA quality and purity was analyzed by spectrophotometry using the Nanodrop ND-1000, and RNA integrity was analyzed using the Agilent 2100 Bioanalyzer. […] Sample labeling, hybridization to chips, and image scanning were performed using standard Affymetrix protocols. For each whole blood sample from control individuals and individuals with DMD, total RNA was labeled using the One-Cycle Target Labeling protocol and hybridized to the arrays. […] Double-stranded cDNA synthesis, biotin-labeled cRNA synthesis, and cRNA fragmentation were performed according to the Affymetrix GeneChip Eukaryotic Expression Analysis protocol. The labeled, fragmented cRNA (15 μg) was hybridized at 45° C. overnight. After hybridization, the array was washed and stained. The arrays were scanned with an argon-ion laser at λ=570 nm, with a resolution of 3 μm/pixel (Affymetrix, Inc.). After scanning the array, the raw probe level values for each probe were saved in Affymetrix.cel files. […] Statistical analyses, including t-test analyses, unsupervised hierarchical clustering, and principal component analyses were conducted using Genespring 7.2 software ([…]® 7, Silicon Genetics, Redwood City Calif.). […] Corrections for multiple comparisons used a Benjamini-Hochberg False Discovery Rate (FDR) of 0.05, disclosed in Tang et al., J Cereb Blood Flow Metab 26 (2006) 1089, which is expressly incorporated by reference herein in its entirety. […] Sample processing and array hybridization, probe-level data analysis, and statistical analysis were identical to Example 1.

Experiment [4] has the same test system. Description: Whole-blood gene expression microarray: DMD administered prednisone or deflazacort vs DMD not administered steroid. In kind it is in vivo, human. The protocol: Fifteen ml of blood was collected from each individual into 6 PAXgene® Vacutainer® tubes (PreAnalytiX, Germany) by antecubital fossa venipuncture. PAXgene® tubes contain a proprietary reagent that immediately stabilizes RNA, thus reducing RNA degradation and minimizing gene expression changes following phlebotomy. The tubes were then inverted 20 times, then remained undisturbed for 2 h at room temperature (about 19° C. to about 22° C.), and then stored at -70° C. until processed. Total RNA was isolated using the Paxgene® blood RNA kit (PreAnalytiX, Germany) according to the manufacturers instructions. The RNA isolated is from all cells in whole blood. […] Sample labeling, hybridization to chips, and image scanning were performed using standard Affymetrix protocols. For each whole blood sample from control individuals and individuals with DMD, total RNA was labeled using the One-Cycle Target Labeling protocol and hybridized to the arrays. […] Double-stranded cDNA synthesis, biotin-labeled cRNA synthesis, and cRNA fragmentation were performed according to the Affymetrix GeneChip Eukaryotic Expression Analysis protocol. […] After hybridization, the array was washed and stained. […] After scanning the array, the raw probe level values for each probe were saved in Affymetrix.cel files. […] Statistical analyses, including t-test analyses, unsupervised hierarchical clustering, and principal component analyses were conducted using Genespring 7.2 software ([…]® 7, Silicon Genetics, Redwood City Calif.). […] Corrections for multiple comparisons used a Benjamini-Hochberg False Discovery Rate (FDR) of 0.05, disclosed in Tang et al., J Cereb Blood Flow Metab 26 (2006) 1089, which is expressly incorporated by reference herein in its entirety. […] Individuals with DMD were evaluated and had been diagnosed by a single board-certified pediatric neurologist. The diagnosis of DMD was based in part upon clinical history, examination findings, and selected muscle biopsies and was confirmed by molecular diagnostic testing. […] Sample processing and array hybridization, probe-level data analysis, and statistical analysis were identical to Example 1.

[5] abbreviates: DMD administered deflazacort or prednisone vs not administered.

In the case of `Cn1cnc([N+](=O)[O-])c1Sc1ncnc2nc[nH]c12` [azathioprine], the “muscle function and strength” value in experiment [1] is on record as “no improvement”.
As to cyclosporin A, the function and histology result in experiment [2] (mdx mouse) is “improves function and histology”.
Take `C[C@]12C=CC(=O)C=C1CC[C@@H]1[C@@H]2C(=O)C[C@@]2(C)[C@H]1CC[C@]2(O)C(=O)CO` [prednisone]: in experiment [3] (individuals with DMD administered prednisone), the “expression of interleukin 1 beta, interleukin 1 receptor antagonist, and interleukin 6 receptor” value is given as “up-regulated”. Further, the “expression of genes related to lipid metabolism” value in experiment [3] (prednisone compared to deflazacort) is “up-regulated”. Moreover, in experiment [4] (setting [5]), the “expression levels of FKBP5” value is “up-regulated”; the “expression levels of genes in the chondroitin sulfate biosynthesis pathway” value was “up-regulated”; the “expression levels of haptoglobin and CD163 nucleic acids” value was “up-regulated”; the “expression levels of lactotransferrin and lipocalin” value is “increased expression levels”. For the same compound, in experiment [4] (individuals administered prednisone, deflazacort, or both vs DMD not administered any agent), the “expression of KFL10” value is “up-regulated”. The “muscle function and strength” value in experiment [1] is “improved muscle function and strength”. Further, the “expression of KFL10” value in experiment [2] (six weeks of prednisone administration in the mdx mouse) was “up-regulated”.
